In patent US11459323B2, “Monocyclic β-lactam compound for treating bacterial infection” (MEDSHINE DISCOVERY INC., priority 2018, dated 2022):
≈ marks a conversion by molar mass, not a printed value. Read-outs that look alike come from different tables or passages of the source.

Legend:
[1] = system: Pseudomonas aeruginosa W19; assay: MIC on clinically isolated bacteria; format: cell-based
Method in brief: (§1)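 Clinical strains were selected (twenty-five A. baumannii, twenty-seven P. aeruginosa), then compounds were serially diluted in liquid micro-dilution format following CLSI requirements to find the minimum inhibitory concentration.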

[2] = system: Pseudomonas aeruginosa W24; assay: MIC on clinically isolated bacteria; format: cell-based
Method in brief: as §1

[3] = system: Acinetobacter baumannii C361; assay: MIC on clinically isolated bacteria; format: cell-based
Method in brief: as §1

[4] = system: Pseudomonas aeruginosa W35; assay: MIC on clinically isolated bacteria; format: cell-based
Method in brief: as §1

[5] = system: Acinetobacter baumannii C357; assay: MIC on clinically isolated bacteria; format: cell-based
Method in brief: as §1

[6] = system: Pseudomonas aeruginosa W6; assay: MIC on clinically isolated bacteria; format: cell-based
Method in brief: as §1

[7] = system: Acinetobacter baumannii C330; assay: MIC on clinically isolated bacteria; format: cell-based
Method in brief: as §1

[8] = system: Acinetobacter baumannii C401; assay: MIC on clinically isolated bacteria; format: cell-based
Method in brief: as §1

[9] = system: Pseudomonas aeruginosa W1; assay: MIC on clinically isolated bacteria; format: cell-based
Method in brief: as §1

[10] = system: Acinetobacter baumannii C270; assay: MIC on clinically isolated bacteria; format: cell-based
Method in brief: as §1

[11] = system: Acinetobacter baumannii C403; assay: MIC on clinically isolated bacteria; format: cell-based
Method in brief: as §1

[12] = system: Pseudomonas aeruginosa PA14; assay: Lungs of immunosuppressed mice infected with Pseudomonas aeruginosa (2), lung bacterial load; format: in vivo; conditions: 24 hours after infection, day, ip at 2 h, 4 h, 6 h, 8 h
Description: Pseudomonas aeruginosa PA14. 60 mice were intraperitoneally injected with 150 mg/kg cyclophosphamide on day 1 and day 4 to give immunosuppressed mice. […] [table] The mice were injected with 50 μL of bacterial solution (2×10^3 CFU) through the airway. 2 hours after the infection, 4 mice in the model group was sacrificed by removing cervical vertebra. Two hours after infection, the drugs were administered by groups, and the mice were administered intraperitoneally once at 2 hours, 4 hours, 6 hours, and 8 hours, a total of 4 times. Mice of each group were sacrificed by removing cervical vertebra 24 hours after infection, lung and kidney tissues were taken aseptically and put into a sterilized tissue homogenate tube, weighed, and an appropriate amount of normal saline (NS) was added, the mixture was homogenized by a homogenizer for 1 min, the lung tissues of the model group were diluted 10^4, 10^5, 10^6 times, the lung tissues of each administration group were diluted 10, 100 times, the kidney tissues of the model group were diluted 10^2, 10^3, 10^4 times, and the lung tissues of each administration group were diluted 10 times, the obtained mixtures were coated on TSA plates using spiral coater, then incubated at 37° C. overnight, and the CFU was counted with a colony counter. Graphpad Prism mapping software was used to make scatter plots of lung tissue CFU. SPSS19.0 software was used to count CFU and average body weight, and analysis of variance was used to analyze differences between groups.

E. coli MG1655Δtol C = assay: MIC by micro-liquid dilution method (CLSI); format: cell-based; conditions: Escherichia coli
From the text: (§2) Three strains of Klebsiella pneumonia, K. pneumoniae ATCC BAA-205 (TEM-1/SHV-1/SHV-12), K. pneumoniae ATCC BAA-1705 (KPC-2), K. pneumoniae ATCC BAA-2470 (NDM-1); three strains of Pseudomonas aeruginosa, P. aeruginosa NCTC13437 (VIM-10; VEB-1), P. aeruginosa PA 14 and P. aeruginosa ATCC 35151; four strains of Escherichia coli, E. coli NCTC 13476 (IMP-1 type), E. coli ATCC BAA-2523 (OXA-48), E. coli MG1655Δtol C, E. coli ATCC 25922; one strain of Acinetobacter baumannii, A. baumannii ATCC 17978 and one strain of Staphylococcus aureus, S. aureus NRS384 were used to determine the minimum inhibitory concentration (MIC) of the compounds by micro-liquid dilution method according to the Institute of Clinical and Laboratory Standard (CLSI) requirements.

P. aeruginosa PA 14 = assay: MIC by micro-liquid dilution method (CLSI); format: cell-based; conditions: Pseudomonas aeruginosa, PA14; P. aeruginosa PA 14; read-out: MIC
From the text: as §2

[13] = system: E. coli NCTC 13476 (IMP-1 type); assay: MIC by micro-liquid dilution method (CLSI); format: cell-based; conditions: Escherichia coli; E. coli NCTC13476; read-out: MIC
From the text: as §2

[14] = system: E. coli ATCC BAA-2523 (OXA-48); assay: MIC by micro-liquid dilution method (CLSI); format: cell-based; conditions: Escherichia coli, ATCCBAA2523; E. coli ATCCBAA-2523; read-out: MIC
From the text: as §2

[15] = system: Acinetobacter baumannii ATCC-BAA-1795; assay: MIC on Acinetobacter baumannii strains; format: cell-based; conditions: ATCCBAA1795
From the text: (§3) Twelve strains of Acinetobacter baumannii, A. baumannii ATCC 17978 (ATCC-BAA-1605, ATCC-BAA-1789, ATCC-BAA-1790, ATCC-BAA-1791, ATCC-BAA-1792, ATCC-BAA-1793, ATCC-BAA-1794, ATCC-BAA-1795, ATCC-BAA-1799, ATCC-BAA-1800, ATCC 19606, ATCC 17978) were used to determine the minimum inhibitory concentration (MIC) of the compounds by micro-liquid dilution method according to the Institute of Clinical and Laboratory Standard (CLSI) requirements.

[16] = system: Acinetobacter baumannii ATCC-BAA-1794; assay: MIC on Acinetobacter baumannii strains; format: cell-based; conditions: ATCCBAA1794
From the text: as §3

[17] = system: Acinetobacter baumannii ATCC-BAA-1799; assay: MIC on Acinetobacter baumannii strains; format: cell-based; conditions: ATCCBAA1799
From the text: as §3

[18] = system: Acinetobacter baumannii ATCC-BAA-1791; assay: MIC on Acinetobacter baumannii strains; format: cell-based; conditions: ATCCBAA1791
From the text: as §3

[19] = system: Acinetobacter baumannii ATCC-BAA-1790; assay: MIC on Acinetobacter baumannii strains; format: cell-based; conditions: ATCCBAA1790
From the text: as §3

E. coli ATCC 25922 = assay: MIC by micro-liquid dilution method (CLSI); format: cell-based; conditions: Escherichia coli, ATCC25922
[20] = Acinetobacter baumannii C361, read-out: Minimum Inhibitory Concentration (MIC)
[21] = Acinetobacter baumannii C357, read-out: Minimum Inhibitory Concentration (MIC)
[22] = Acinetobacter baumannii C330, read-out: Minimum Inhibitory Concentration (MIC)
[23] = Acinetobacter baumannii C401, read-out: Minimum Inhibitory Concentration (MIC)
[24] = Acinetobacter baumannii C270, read-out: Minimum Inhibitory Concentration (MIC)
[25] = Acinetobacter baumannii C403, read-out: Minimum Inhibitory Concentration (MIC)

Structure (SMILES)	MIC ([1]; read-out: MIC)	MIC ([2]; read-out: MIC)	MIC [3, 20]	MIC ([4]; read-out: MIC)	MIC [5, 21]	MIC ([6]; read-out: MIC)	MIC [7, 22]	MIC [8, 23]	MIC ([9]; read-out: MIC)	MIC [10, 24]	MIC [11, 25]	LOG10-of bacterial load ([12]; total dosage 20 mg/kg)	LOG10-of bacterial load ([12]; total dosage 60 mg/kg)	also measured
CC1(C)[C@H](NC(=O)/C(=N\O[C@@H](COc2ccc3c(c2)CN(C(=N)N[C@@H]2CCCNC2)C3)C(=O)O)c2csc(N)n2)C(=O)N1OS(=O)(=O)O [Compound 41]	1 µg/mL (≈ 1.41 µM)	2 µg/mL (≈ 2.82 µM)	1 µg/mL (≈ 1.41 µM)	0.5 µg/mL (≈ 0.704 µM)	2 µg/mL (≈ 2.82 µM)	4 µg/mL (≈ 5.64 µM)	2 µg/mL (≈ 2.82 µM)	1 µg/mL (≈ 1.41 µM)	2 µg/mL (≈ 2.82 µM)	2 µg/mL (≈ 2.82 µM)	4 µg/mL (≈ 5.64 µM)	4.12 ± 1.50	3.65 ± 2.15	–
CC1(C)[C@H](NC(=O)/C(=N\O[C@@H](COc2ccc3c(c2)CN(C(=N)NCCCCN)C3)C(=O)O)c2csc(N)n2)C(=O)N1OS(=O)(=O)O [Compound 36]	0.25 µg/mL (≈ 0.358 µM)	0.5 µg/mL (≈ 0.717 µM)	2 µg/mL (≈ 2.87 µM)	0.125 µg/mL (≈ 0.179 µM)	2 µg/mL (≈ 2.87 µM)	0.5 µg/mL (≈ 0.717 µM)	2 µg/mL (≈ 2.87 µM)	1 µg/mL (≈ 1.43 µM)	0.5 µg/mL (≈ 0.717 µM)	2 µg/mL (≈ 2.87 µM)	2 µg/mL (≈ 2.87 µM)	–	–	–
CC1(C)[C@H](NC(=O)/C(=N\O[C@@H](COc2ccc3c(c2)CN(C(=N)N(CCN)CCN)C3)C(=O)O)c2csc(N)n2)C(=O)N1OS(=O)(=O)O [Compound 45]	8 µg/mL (≈ 11.2 µM)	16 µg/mL (≈ 22.4 µM)	8 µg/mL (≈ 11.2 µM)	2 µg/mL (≈ 2.81 µM)	8 µg/mL (≈ 11.2 µM)	> 16 µg/mL	16 µg/mL (≈ 22.4 µM)	8 µg/mL (≈ 11.2 µM)	16 µg/mL (≈ 22.4 µM)	16 µg/mL (≈ 22.4 µM)	16 µg/mL (≈ 22.4 µM)	–	–	–
CC1(C)[C@H](NC(=O)/C(=N\O[C@@H](COc2ccc3c(c2)CN(/C(=N\[C@@H]2CCCNC2)N[C@@H]2CCCNC2)C3)C(=O)O)c2csc(N)n2)C(=O)N1OS(=O)(=O)O [Compound 46]	0.5 µg/mL (≈ 0.631 µM)	1 µg/mL (≈ 1.26 µM)	4 µg/mL (≈ 5.04 µM)	0.25 µg/mL (≈ 0.315 µM)	4 µg/mL (≈ 5.04 µM)	1 µg/mL (≈ 1.26 µM)	4 µg/mL (≈ 5.04 µM)	4 µg/mL (≈ 5.04 µM)	1 µg/mL (≈ 1.26 µM)	4 µg/mL (≈ 5.04 µM)	4 µg/mL (≈ 5.04 µM)	3.13 ± 2.45	0.34 ± 0.85	–
CN(C)c1cc(NC(=O)CNC(C)(C)C)c(O)c2c1C[C@H]1C[C@H]3[C@H](N(C)C)C(O)=C(C(N)=O)C(=O)[C@@]3(O)C(O)=C1C2=O [Tigecycline, reference compound]	–	–	–	–	–	–	–	–	–	–	–	–	–	MIC [1]: 8 µg/mL (≈ 13.7 µM); MIC [2]: 16 µg/mL (≈ 27.3 µM); MIC ([3]; Acinetobacter baumannii, C361, read-out: Minimum Inhibitory Concentration (MIC)): 1 µg/mL (≈ 1.71 µM); MIC [4]: 8 µg/mL (≈ 13.7 µM); MIC ([5]; Acinetobacter baumannii, C357, read-out: Minimum Inhibitory Concentration (MIC)): 1 µg/mL (≈ 1.71 µM); MIC [6]: 16 µg/mL (≈ 27.3 µM); MIC ([7]; Acinetobacter baumannii, C330, read-out: Minimum Inhibitory Concentration (MIC)): 1 µg/mL (≈ 1.71 µM); MIC ([8]; Acinetobacter baumannii, C401, read-out: Minimum Inhibitory Concentration (MIC)): 1 µg/mL (≈ 1.71 µM); MIC [9]: 16 µg/mL (≈ 27.3 µM); MIC ([10]; Acinetobacter baumannii, C270, read-out: Minimum Inhibitory Concentration (MIC)): 1 µg/mL (≈ 1.71 µM); MIC ([11]; Acinetobacter baumannii, C403, read-out: Minimum Inhibitory Concentration (MIC)): 1 µg/mL (≈ 1.71 µM)
CC1(C)[C@H](NC(=O)/C(=N\O[C@@H](COc2ccc3c(c2)CN(C(=N)NCCN)C3)C(=O)O)c2csc(N)n2)C(=O)N1OS(=O)(=O)O [Compound 44]	1 µg/mL (≈ 1.49 µM)	2 µg/mL (≈ 2.99 µM)	1 µg/mL (≈ 1.49 µM)	0.25 µg/mL (≈ 0.373 µM)	1 µg/mL (≈ 1.49 µM)	4 µg/mL (≈ 5.97 µM)	1 µg/mL (≈ 1.49 µM)	1 µg/mL (≈ 1.49 µM)	2 µg/mL (≈ 2.99 µM)	1 µg/mL (≈ 1.49 µM)	2 µg/mL (≈ 2.99 µM)	6.80 ± 0.94	2.40 ± 1.99	–
CC1(C)[C@H](NC(=O)/C(=N\O[C@@H](COc2ccc3c(c2)CN(C(=N)NOCCN)C3)C(=O)O)c2csc(N)n2)C(=O)N1OS(=O)(=O)O [Compound 43]	4 µg/mL (≈ 5.83 µM)	8 µg/mL (≈ 11.7 µM)	8 µg/mL (≈ 11.7 µM)	1 µg/mL (≈ 1.46 µM)	8 µg/mL (≈ 11.7 µM)	8 µg/mL (≈ 11.7 µM)	8 µg/mL (≈ 11.7 µM)	8 µg/mL (≈ 11.7 µM)	8 µg/mL (≈ 11.7 µM)	8 µg/mL (≈ 11.7 µM)	16 µg/mL (≈ 23.3 µM)	–	–	–
C[C@@H](O)[C@H]1C(=O)N2C(C(=O)O)=C(S[C@@H]3CN[C@H](C(=O)N(C)C)C3)[C@H](C)[C@H]12 [Meropenem, reference compound]	1 µg/mL (≈ 2.61 µM)	16 µg/mL (≈ 41.7 µM)	64 µg/mL (≈ 167 µM)	16 µg/mL (≈ 41.7 µM)	64 µg/mL (≈ 167 µM)	32 µg/mL (≈ 83.4 µM)	64 µg/mL (≈ 167 µM)	128 µg/mL (≈ 334 µM)	4 µg/mL (≈ 10.4 µM)	64 µg/mL (≈ 167 µM)	64 µg/mL (≈ 167 µM)	–	–	MIC (E. coli MG1655Δtol C): ≤ 0.125 µg/mL; MIC (P. aeruginosa PA 14): 0.5 µg/mL (≈ 1.3 µM); MIC [13]: 32 µg/mL (≈ 83.4 µM); MIC [14]: 2 µg/mL (≈ 5.22 µM); MIC [15]: 4 µg/mL (≈ 10.4 µM); MIC [16]: > 128 µg/mL; MIC [17]: 128 µg/mL (≈ 334 µM); MIC [18]: 64 µg/mL (≈ 167 µM); MIC [19]: 128 µg/mL (≈ 334 µM); MIC (E. coli ATCC 25922): ≤ 0.125 µg/mL
